Source: ChEMBL document CHEMBL1131095, “Derivation of a three-dimensional pharmacophore model of substance P antagonists bound to the neurokinin-1 receptor” (J Med Chem, 1998)
pIC50: −log10 of the molar value.

Legend:
Substance-P receptor [1] = target: T1, Substance-P receptor (Homo sapiens, UniProt P25103); experiment: Binding affinity was measured against the Tachykinin receptor 1 in CHO-expressed hNK1 using [125I]SP.
Substance-P receptor [2] = target: T1, Substance-P receptor; experiment: Binding affinity was measured against the Tachykinin receptor 1 in human IM-9 cells using [125I]Bolton-Hunter SP.; assay type: cell-based
Substance-P receptor [3] = target: T1, Substance-P receptor; experiment: Binding affinity was measured against the Tachykinin receptor 1 in human IM-9 cells using [3H]SP as ligand.; assay type: cell-based

T1 sequence (P25103 whole entry): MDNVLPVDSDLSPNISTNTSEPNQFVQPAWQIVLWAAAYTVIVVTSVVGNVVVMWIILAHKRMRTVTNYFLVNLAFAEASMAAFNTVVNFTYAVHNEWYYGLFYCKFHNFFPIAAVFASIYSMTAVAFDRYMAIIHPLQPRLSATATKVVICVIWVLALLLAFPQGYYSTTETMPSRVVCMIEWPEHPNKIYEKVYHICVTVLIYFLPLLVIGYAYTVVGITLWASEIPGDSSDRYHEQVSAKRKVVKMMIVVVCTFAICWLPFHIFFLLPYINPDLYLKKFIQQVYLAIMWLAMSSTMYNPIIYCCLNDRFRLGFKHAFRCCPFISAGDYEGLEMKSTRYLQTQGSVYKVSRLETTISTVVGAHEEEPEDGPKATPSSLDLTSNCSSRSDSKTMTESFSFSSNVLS

Row | SMILES | pIC50 (Substance-P receptor [1]) | also measured
1 | N[C@H](COCc1cccc(Cl)c1)C(c1ccccc1)c1ccccc1 | 7.12 | –
2 | COc1ccccc1CN1CCN2CCC[C@H]1[C@@H]2c1ccccc1 | – | pIC50 (Substance-P receptor [2]): 9.44
3 | CN(Cc1ccccc1)C(=O)[C@H](Cc1ccc2ccccc2c1)NC(=O)[C@@H]1CCCC[C@@H]1NC(=O)c1c[nH]c2ccccc12 | – | pIC50 (Substance-P receptor [3]): 7.90
4 | Cc1cc(C)cc(COC[C@@H](Nc2ccccc2)C(c2ccccc2)c2ccccc2)c1 | 7.09 | –
5 | FC(F)(F)c1cc(CN[C@H]2C3CCN(CC3)[C@H]2C(c2ccccc2)c2ccccc2)cc(C(F)(F)F)c1 | 8.70 | –
6 | c1ccc(CO[C@H]2C3CCN(CC3)[C@H]2C(c2ccccc2)c2ccccc2)cc1 | 7.12 | –
7 | CN(Cc1ccccc1)C(=O)[C@H](Cc1ccc2ccccc2c1)NC(=O)C1(NC(=O)c2c[nH]c3ccccc23)CCCCC1 | – | pIC50 (Substance-P receptor [3]): 8.90
8 | COc1ccccc1CN[C@H]1C2CC3CCCC2CN3[C@H]1C(c1ccccc1)c1ccccc1 (some centres undefined) | – | pIC50 (Substance-P receptor [2]): 8.72
9 | CN(C(=O)Cc1ccccc1)[C@H](Cc1ccc2ccccc2c1)NC(=O)C1(NC(=O)c2c[nH]c3ccccc23)CCCCC1 | – | pIC50 (Substance-P receptor [3]): 7.70
10 | c1ccc(CN[C@H]2C3C4CCCC3CN(C4)[C@H]2C(c2ccccc2)c2ccccc2)cc1 | – | pIC50 (Substance-P receptor [2]): 6.64
11 | O=C(Cc1ccccc1)N[C@H](Cc1ccc2ccccc2c1)NC(=O)[C@@H]1CCCC[C@@H]1NC(=O)c1c[nH]c2ccccc12 | – | pIC50 (Substance-P receptor [3]): 6.50
12 | COc1ccccc1[C@@H]1CC[C@@]2(CCCN[C@H]2c2ccccc2)NC1 | – | pIC50 (Substance-P receptor [2]): 8.70
13 | COc1ccccc1[C@@H]1CC[C@@]2(CCCN[C@H]2c2ccccc2)N1 | – | pIC50 (Substance-P receptor [2]): 5.00
14 | c1ccc(CN[C@H]2C3CC4CCCC(C3)N4[C@H]2C(c2ccccc2)c2ccccc2)cc1 | – | pIC50 (Substance-P receptor [2]): 6.77
15 | N[C@H](COCc1ccccc1)C(c1ccccc1)c1ccccc1 | 6.44 | –
16 | COc1ccccc1CN1CN2CCC[C@H]1[C@@H]2c1ccccc1 | – | pIC50 (Substance-P receptor [2]): 9.21
17 | CN(Cc1ccccc1)C(=O)[C@H](Cc1ccccc1)NC(=O)[C@@H]1CCCC[C@@H]1NC(=O)c1c[nH]c2ccccc12 | – | pIC50 (Substance-P receptor [3]): 6.90
18 | c1ccc(CN[C@H]2C3CC4CCC(C3)N4[C@H]2C(c2ccccc2)c2ccccc2)cc1 | – | pIC50 (Substance-P receptor [2]): 7.17
19 | c1ccc(CN[C@H]2C3CCN(CC3)[C@H]2C(c2ccccc2)c2ccccc2)cc1 | 7.54 | –
20 | COc1ccccc1CN[C@H]1C2CC3CCC(C2)N3[C@H]1C(c1ccccc1)c1ccccc1 | – | pIC50 (Substance-P receptor [2]): 9.04
21 | CN(Cc1ccccc1)C[C@H](Cc1ccc2ccccc2c1)NC(=O)[C@@H]1CCCC[C@@H]1NC(=O)c1c[nH]c2ccccc12 | – | pIC50 (Substance-P receptor [3]): 5.90
22 | COc1ccccc1CN[C@H]1[C@@H]2CCC[C@@H]2N[C@H]1c1ccccc1 | – | pIC50 (Substance-P receptor [3]): 8.62
23 | COc1ccccc1CN[C@H]1C2CCN(CC2)[C@H]1Cc1ccccc1 | 6.63 | –
24 | Cc1cc(C)cc(CO[C@H]2C3CCN(CC3)[C@H]2C(c2ccccc2)c2ccccc2)c1 [L-706125] | 6.53 | –
25 | FC(F)(F)c1cc(CO[C@H]2C3CCN(CC3)[C@H]2C(c2ccccc2)c2ccccc2)cc(C(F)(F)F)c1 [L-709210] | 6.71 | –

Continued, in another order:

Row | pIC50 (Substance-P receptor [1]) | SMILES | also measured
26 | 7.40 | FC(F)(F)c1cc(CO[C@H]2CCCN(Cc3ccco3)[C@H]2c2ccccc2)cc(C(F)(F)F)c1 | –
27 | 9.00 | FC(F)(F)c1cc(CO[C@H]2CCCN(Cc3cnc[nH]3)[C@H]2c2ccccc2)cc(C(F)(F)F)c1 | –
28 | 7.70 | FC(F)(F)c1cc(COCC2(c3ccccc3)CCCNC2)cc(C(F)(F)F)c1 (centres undefined) | –
29 | 7.59 | O=C1O[C@@H](Cc2c[nH]c3ccccc23)C(=O)N1Cc1cc(C(F)(F)F)cc(C(F)(F)F)c1 | –
30 | 5.57 | O=C1O[C@@H](Cc2c[nH]c3ccccc23)C(=O)N1Cc1cccc(C(F)(F)F)c1 | –
31 | 7.40 | FC(F)(F)c1cc(CO[C@H]2CCCN(Cc3nnn[nH]3)[C@H]2c2ccccc2)cc(C(F)(F)F)c1 | –
32 | 9.00 | FC(F)(F)c1cc(COCC2(c3ccccc3)CCCCN2)cc(C(F)(F)F)c1 (centres undefined) | –
33 | 9.40 | CN(Cc1ccccc1)C(=O)CN1CCC[C@H](OCc2cc(C(F)(F)F)cc(C(F)(F)F)c2)[C@@H]1c1ccccc1 | –
34 | 9.30 | FC(F)(F)c1cc(CO[C@H]2CCCN(Cc3ncc[nH]3)[C@H]2c2ccccc2)cc(C(F)(F)F)c1 | –
35 | 9.00 | FC(F)(F)c1cc(CO[C@H]2CCCN(Cc3nnco3)[C@H]2c2ccccc2)cc(C(F)(F)F)c1 | –
36 | 10.00 | O=c1[nH]nc(CN2CCC[C@H](OCc3cc(C(F)(F)F)cc(C(F)(F)F)c3)[C@@H]2c2ccccc2)[nH]1 | –
37 | 9.70 | FC(F)(F)c1cc(CO[C@H]2CCCN(Cc3nnc[nH]3)[C@H]2c2ccccc2)cc(C(F)(F)F)c1 | –
38 | 7.28 | CC(=O)N[C@@H](Cc1c[nH]c2ccccc12)C(=O)OCc1cc(C)cc(C)c1 [L-708568] | –
39 | 7.82 | CC(=O)N[C@@H](Cc1csc2ccccc12)C(=O)OCc1cc(C(F)(F)F)cc(C(F)(F)F)c1 [L-709400] | –
